PubChem BioAssay AID248 (DTP/NCI, 2004)
Values joined by “and” are separate entries in the source; they are usually repeats but may differ in a detail not shown here. Equal values may be shown once. Toxic doses and inconclusive results are not listed. Cut-off read from the data, not from the text of the source: active = T/C of 150% or more; inactive = T/C below 125%.

Test system: L1210 leukemia ip in BDF1 mice, survival T/C
Assay: NCI In Vivo Anticancer Drug Screen. Data for tumor model L1210 Leukemia (intraperitoneal) in B6D2F1 (BDF1) mice
Details: endpoint: mean survival time, higher = longer survival
In short: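 Value reflects the ratio of survival in compound-treated mice to survival in vehicle-treated controls, with both groups carrying the same transplanted tumor.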

[1] = dose: 100.0 mg/kg/injection, schedule: Q01DX001 (ip), vehicle: saline
[2] = dose: 200.0 mg/kg/injection, schedule: Q01DX001 (ip), vehicle: saline
[3] = dose: 400.0 mg/kg/injection, schedule: Q01DX001 (ip), vehicle: saline
[4] = dose: 100.0 mg/kg/injection, schedule: Q01DX001 (ip), vehicle: carboxymethylcellulose (CMC)
[5] = dose: 200.0 mg/kg/injection, schedule: Q01DX001 (ip), vehicle: carboxymethylcellulose (CMC)
[6] = dose: 400.0 mg/kg/injection, schedule: Q01DX001 (ip), vehicle: carboxymethylcellulose (CMC)
[7] = dose: 50.0 mg/kg/injection, schedule: Q01DX009 (ip), vehicle: Klucel (hydroxypropylcellulose) (HPC)
[8] = dose: 100.0 mg/kg/injection, schedule: Q01DX009 (ip), vehicle: Klucel (hydroxypropylcellulose) (HPC)
[9] = dose: 100.0 mg/kg/injection, schedule: Q04DX003 (ip), vehicle: saline
[10] = dose: 200.0 mg/kg/injection, schedule: Q04DX003 (ip), vehicle: saline
[11] = dose: 400.0 mg/kg/injection, schedule: Q04DX003 (ip), vehicle: saline
[12] = dose: 100.0 mg/kg/injection, schedule: Q04DX003 (ip), vehicle: saline with Tween-80
[13] = dose: 200.0 mg/kg/injection, schedule: Q04DX003 (ip), vehicle: saline with Tween-80
[14] = dose: 400.0 mg/kg/injection, schedule: Q04DX003 (ip), vehicle: saline with Tween-80
[15] = dose: 50.0 mg/kg/injection, schedule: Q04DX003 (ip), vehicle: saline
[16] = dose: 100.0 mg/kg/injection, schedule: Q01DX009 (ip), vehicle: saline
[17] = dose: 200.0 mg/kg/injection, schedule: Q01DX009 (ip), vehicle: saline
[18] = dose: 400.0 mg/kg/injection, schedule: Q01DX009 (ip), vehicle: saline
[19] = dose: 200.0 mg/kg/injection, schedule: Q01DX009 (ip), vehicle: Klucel (hydroxypropylcellulose) (HPC)
[20] = dose: 100.0 mg/kg/injection, schedule: Q04DX003 (ip), vehicle: Klucel (hydroxypropylcellulose) (HPC)
[21] = dose: 200.0 mg/kg/injection, schedule: Q04DX003 (ip), vehicle: Klucel (hydroxypropylcellulose) (HPC)
[22] = dose: 400.0 mg/kg/injection, schedule: Q04DX003 (ip), vehicle: Klucel (hydroxypropylcellulose) (HPC)

Measured: T/C

CN1CCCC2C3=CC=C4CC(O)CCC4(C)C3CCC21C (configuration not stated)
inactive: dose: 75.0 mg/kg/injection, schedule: Q01DX001 (ip), vehicle: carboxymethylcellulose (CMC) 98 % of control | dose: 150.0 mg/kg/injection, schedule: Q01DX001 (ip), vehicle: carboxymethylcellulose (CMC) 101 % of control

CC12CC(=O)OC1(C)C1CCC2C1 (configuration not stated)
inactive: dose: 6.25 mg/kg/injection, schedule: Q01DX009 (ip), vehicle: acetone 111 % of control | dose: 6.25 mg/kg/injection, schedule: Q04DX003 (ip), vehicle: acetone 101 % of control | dose: 12.5 mg/kg/injection, schedule: Q01DX001 (ip), vehicle: acetone 96 % of control | dose: 12.5 mg/kg/injection, schedule: Q01DX009 (ip), vehicle: acetone 92 % of control | dose: 12.5 mg/kg/injection, schedule: Q04DX003 (ip), vehicle: acetone 101 % of control | dose: 25.0 mg/kg/injection, schedule: Q01DX001 (ip), vehicle: acetone 112 % of control | dose: 25.0 mg/kg/injection, schedule: Q04DX003 (ip), vehicle: acetone 97 % of control

C=C1C(C)=NN=C2C=CN(C(=O)CI)N12
inactive: [1] 109 % of control | [2] 106 % of control | [3] 106 % of control

CCCCCN(CCCCC)CCCNc1c2c(nc3ccc(OC)cc13)CCCC2
inactive: dose: 2.5 mg/kg/injection, schedule: Q01DX009 (ip), vehicle: saline 100 % of control | dose: 5.0 mg/kg/injection, schedule: Q01DX001 (ip), vehicle: saline 98 % of control | dose: 5.0 mg/kg/injection, schedule: Q01DX009 (ip), vehicle: saline 104 % of control | dose: 9.0 mg/kg/injection, schedule: Q01DX001 (ip), vehicle: saline 94 % of control and 102 % of control | dose: 10.0 mg/kg/injection, schedule: Q01DX001 (ip), vehicle: saline 96 % of control | dose: 10.0 mg/kg/injection, schedule: Q01DX009 (ip), vehicle: saline 98 % of control | dose: 13.0 mg/kg/injection, schedule: Q01DX001 (ip), vehicle: saline 94 % of control | dose: 14.0 mg/kg/injection, schedule: Q01DX001 (ip), vehicle: saline 104 % of control | dose: 20.0 mg/kg/injection, schedule: Q01DX001 (ip), vehicle: saline 93 % of control and 102 % of control (2×) | dose: 20.0 mg/kg/injection, schedule: Q01DX009 (ip), vehicle: saline 100 % of control | dose: 30.0 mg/kg/injection, schedule: Q01DX001 (ip), vehicle: saline 98 % of control

C/C=C1\C(=O)C2CCC1C2 (configuration not stated)
inactive: [4] 93 % of control | [5] 90 % of control | [6] 95 % of control

Nc1nc2ccc([N+](=O)[O-])cc2s1
inactive: [7] 105 % of control | [8] 104 % of control | [9] 97 % of control | [10] 101 % of control | [11] 86 % of control

[Cl][Hg][Cl].c1ccc(CSc2ccccc2)cc1
inactive: dose: 5.0 mg/kg/injection, schedule: Q01DX001 (ip), vehicle: carboxymethylcellulose (CMC) 105 % of control

CC(=O)C(C)=O
inactive: [12] 95 % of control | [13] 101 % of control | [14] 106 % of control

O=S1(=O)C(Cl)(Cl)SC(Cl)(Cl)S(=O)(=O)C1(Cl)Cl
inactive: dose: 12.5 mg/kg/injection, schedule: Q01DX009 (ip), vehicle: saline 101 % of control | dose: 25.0 mg/kg/injection, schedule: Q01DX009 (ip), vehicle: saline 93 % of control | dose: 50.0 mg/kg/injection, schedule: Q01DX009 (ip), vehicle: saline 101 % of control | [15] 93 % of control | [1] 96 % of control | [2] 98 % of control

CC(C)(O)CCNc1ncnc2c1ncn2C1OC(CO)C(O)C1O (configuration not stated)
inactive: dose: 25.0 mg/kg/injection, schedule: Q01DX005 (ip), vehicle: water 97 % of control and 104 % of control | dose: 50.0 mg/kg/injection, schedule: Q01DX005 (ip), vehicle: water 103 % of control and 110 % of control | dose: 100.0 mg/kg/injection, schedule: Q01DX005 (ip), vehicle: water 106 % of control and 109 % of control

CC1(O)CCC2C3CCC4CC(=O)CCC4(C)C3(F)C(O)CC21C (configuration not stated)
inactive: [16] 96 % of control | [17] 102 % of control | [18] 96 % of control

CC(NC(N)=O)C(=O)O (configuration not stated)
inactive: dose: 100.0 mg/kg/injection, schedule: Q04DX002 (ip), vehicle: saline 89 % of control | dose: 200.0 mg/kg/injection, schedule: Q04DX002 (ip), vehicle: saline 104 % of control | dose: 400.0 mg/kg/injection, schedule: Q04DX002 (ip), vehicle: saline 93 % of control

CCCCOB(OCCCC)Oc1c(C(C)(C)C)cccc1C(C)(C)C
inactive: [16] 106 % of control | [9] 89 % of control | [17] 93 % of control | [10] 92 % of control | [18] 108 % of control | [11] 91 % of control

COc1ccc(NC(=O)OCCN(CCOC(=O)Nc2ccc(OC)cc2)Cc2ccccc2)cc1
inactive: [1] 94 % of control | [2] 96 % of control | [3] 100 % of control

CN(Cc1ccccc1)C(=O)c1ccc(C(=O)N(C)Cc2ccccc2)cc1
inactive: [8] 97 % of control | [19] 108 % of control | dose: 400.0 mg/kg/injection, schedule: Q01DX009 (ip), vehicle: Klucel (hydroxypropylcellulose) (HPC) 102 % of control

CCC(Nc1ccccc1)C(=O)O (configuration not stated)
inactive: [1] 96 % of control | [2] 100 % of control | [3] 102 % of control

COC1OC2COC(c3ccccc3)OC2C(O)C1NC(=O)c1ccccc1 (configuration not stated)
inactive: [20] 110 % of control | [21] 94 % of control | [22] 111 % of control

CCCCCCCCCCCCNC1=C(Cl)C(=O)C(=O)c2cccnc21
inactive: [12] 98 % of control | [13] 101 % of control | [14] 95 % of control

Cc1nc(N)nc(N)c1Oc1ccc(Cl)cc1
inactive: dose: 30.0 mg/kg/injection, schedule: Q01DX Z (ip), vehicle: saline 96 % of control | dose: 60.0 mg/kg/injection, schedule: Q01DX Z (ip), vehicle: saline 98 % of control | dose: 120.0 mg/kg/injection, schedule: Q01DX Z (ip), vehicle: saline 102 % of control

Cc1c(-c2ccccc2)n(O)[n+]([O-])c1-c1ccccc1
inactive: [7] 98 % of control | [8] 94 % of control | [19] 94 % of control

CCOC(=O)NC1=C(NCCCl)C(=O)C(NC(=O)OCC)=C(NCCCl)C1=O
inactive: dose: 6.25 mg/kg/injection, schedule: Q04DX003 (ip), vehicle: saline 92 % of control | dose: 12.5 mg/kg/injection, schedule: Q04DX003 (ip), vehicle: saline 95 % of control | dose: 25.0 mg/kg/injection, schedule: Q04DX003 (ip), vehicle: saline 106 % of control | [15] 104 % of control | [9] 90 % of control

CCCCOCN1CCCCC1
inactive: dose: 31.0 mg/kg/injection, schedule: Q01DX Z (ip), vehicle: carboxymethylcellulose (CMC) 95 % of control | dose: 62.5 mg/kg/injection, schedule: Q01DX Z (ip), vehicle: carboxymethylcellulose (CMC) 101 % of control | [12] 111 % of control | dose: 125.0 mg/kg/injection, schedule: Q01DX Z (ip), vehicle: carboxymethylcellulose (CMC) 105 % of control | [13] 102 % of control

CCCCCCCCCCCCCCCCNS(=O)(=O)c1ccc(N2CCOCC2)c(N)c1
inactive: [20] 93 % of control | [21] 98 % of control | [22] 94 % of control

C(=Nc1cnc2ccccc2c1)c1ccnc2ccccc12
inactive: dose: 50.0 mg/kg/injection, schedule: Q01DX001 (ip), vehicle: carboxymethylcellulose (CMC) 95 % of control | [4] 104 % of control | [5] 107 % of control | [6] 95 % of control

CC(=O)Nc1c(Br)cc2c(c1Br)Cc1cc(N=Cc3ccc4c(c3)OCO4)ccc1-2
inactive: dose: 100.0 mg/kg/injection, schedule: Q01DX001 (ip), vehicle: other 100 % of control | dose: 200.0 mg/kg/injection, schedule: Q01DX001 (ip), vehicle: other 94 % of control | dose: 400.0 mg/kg/injection, schedule: Q01DX001 (ip), vehicle: other 103 % of control
